Data reported in patent publication US20240158446A1, “CYCLIC COMPOUND HAVING SELECTIVE INHIBITORY ACTION ON KRAS OVER HRAS AND NRAS” (CHUGAI SEIYAKU KABUSHIKI KAISHA, priority 2021, published 2024).
Where two headings read alike, the source gives them in different places. One block for each compound: values may come before it.

Tests used:
[1] = system: human lung cancer strain NCI-H441;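 further: cell proliferation inhibition after four days measured by CellTiter-Glo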
[2] = target: GDP-bound NRAS wild-type protein (Homo sapiens, UniProt P01111); assay: Binding to NRAS by surface plasmon resonance (SPR), Single Cycle Kinetics; details: for NRAS/KRAS (ratio of KD value for NRAS to KD value for KRAS): GDP-bound NRAS wild-type protein vs GDP-bound KRAS wild-type protein; for NRAS/KRAS (ratio of KD value with respect to GDP-bound NRAS wild-type protein to KD value with respect to KRAS): SPR KD ratio NRAS/KRAS, class symbols
Chain of GDP-bound NRAS wild-type protein (P01111 whole entry): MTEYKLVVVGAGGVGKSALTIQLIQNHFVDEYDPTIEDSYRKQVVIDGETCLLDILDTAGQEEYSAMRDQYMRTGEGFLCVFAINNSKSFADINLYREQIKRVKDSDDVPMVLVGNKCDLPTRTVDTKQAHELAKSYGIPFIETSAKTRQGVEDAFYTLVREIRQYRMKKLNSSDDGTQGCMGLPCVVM

[3] = target: GDP-bound HRAS wild-type protein (Homo sapiens, UniProt P01112); assay: Binding to HRAS by surface plasmon resonance (SPR), Single Cycle Kinetics; details: for HRAS/KRAS (ratio of KD value for HRAS to KD value for KRAS) / ratio of the KD value with respect to GDP-bound HRAS wild-type protein to the KD value with respect to KRAS: SPR; for HRAS/KRAS (ratio of KD value for HRAS to KD value for KRAS): GDP-bound HRAS wild-type protein vs GDP-bound KRAS wild-type protein; for HRAS/KRAS (ratio of KD value with respect to GDP-bound HRAS wild-type protein to KD value with respect to KRAS): SPR KD ratio HRAS/KRAS, class symbols
Chain of GDP-bound HRAS wild-type protein (P01112 whole entry): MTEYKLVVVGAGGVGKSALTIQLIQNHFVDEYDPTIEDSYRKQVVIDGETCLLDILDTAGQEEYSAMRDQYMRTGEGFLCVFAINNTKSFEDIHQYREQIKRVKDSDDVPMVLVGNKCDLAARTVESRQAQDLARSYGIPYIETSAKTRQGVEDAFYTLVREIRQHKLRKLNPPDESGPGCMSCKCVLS

[4] = target: GDP-bound KRAS wild-type protein (Homo sapiens, UniProt P01116); assay: Binding to KRAS by surface plasmon resonance (SPR), Single Cycle Kinetics
Chain of GDP-bound KRAS wild-type protein (P01116 whole entry): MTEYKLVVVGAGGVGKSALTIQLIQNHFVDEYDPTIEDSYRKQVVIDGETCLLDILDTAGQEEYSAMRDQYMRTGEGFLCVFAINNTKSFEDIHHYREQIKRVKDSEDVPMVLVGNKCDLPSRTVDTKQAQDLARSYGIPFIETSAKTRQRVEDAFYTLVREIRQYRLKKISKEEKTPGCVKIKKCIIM

[5] = SPR, Single Cycle Kinetics, 1:1 binding model, GDP-bound KRAS wild-type protein, read-out: KRAS KD
[6] = SPR Single Cycle Kinetics, GDP-bound KRAS wild-type protein, 1:1 binding model, read-out: KRAS KD
[7] = read-out: NCI-H441 cell proliferation inhibitory activity, 50% proliferation inhibitory concentration (IC50 value), NCI-H441, four days, CellTiter-Glo
[8] = SPR, Single Cycle Kinetics, GDP-bound KRAS wild-type protein, read-out: KRAS KD
[9] = SPR, Single Cycle Kinetics, 1:1 binding model, read-out: KD value with respect to GDP-bound KRAS wild-type protein

IC50 [1]: 42.1 nM
Kd [4, 5]: 0.65 nM
Compound: CC[C@H](C)[C@@H]1NC(=O)[C@H](CC(C)C)N(C)C(=O)C[C@@H](C(=O)N2CCOCC2)N(C)C(=O)[C@H](C2CCCC2)N(C)C(=O)C2(CCC2)NC(=O)[C@@H]2CCCN2C(=O)[C@H](CCc2ccc(C(F)(F)F)c(Cl)c2)NC(=O)CN(C)C(=O)[C@H](Cc2ccc(C(F)(F)F)cc2)N2C[C@H](C)CC[C@@H](C2=O)N(C)C(=O)[C@@H]2CCN2C1=O (stereo in doubt) [PP1339]
NRAS/KRAS (ratio of KD value for NRAS to KD value for KRAS) ([2]; SPR, KD ratio class): A (a compound having 10 or more and less than 20 is denoted as A)
HRAS/KRAS (ratio of KD value for HRAS to KD value for KRAS) ([3]; KD ratio class): B (a compound having 3 or more and less than 10 is denoted as B)

IC50 [1]: 20 nM
Kd [4, 6]: 0.43 nM
Compound: CCOC[C@H]1C(=O)N[C@@H]([C@@H](C)CC)C(=O)N(C2CC2)CC(=O)N(C)[C@H]2C/C=C\CCN(C2=O)[C@@H](Cc2ccc(C)cc2)C(=O)N(C)CC(=O)N[C@@H](CCc2ccc(C(F)(F)F)c(OC)c2)C(=O)N2C[C@H](OCC)C[C@H]2C(=O)NC2(CC(C)(C)C2)C(=O)N(C)[C@@H](CC(C)(C)C)C(=O)N(C)[C@H](C(=O)N(C)C)CC(=O)N1C [PP2724]
NRAS/KRAS (ratio of KD value with respect to GDP-bound NRAS wild-type protein to KD value with respect to KRAS) [2]: A (a compound having 10 or more and less than 20 is denoted as A)
HRAS/KRAS (ratio of KD value with respect to GDP-bound HRAS wild-type protein to KD value with respect to KRAS) [3]: B (a compound having 3 or more and less than 10 is denoted as B)

IC50 [1]: 29 nM
Kd [4, 6]: 0.64 nM
Compound: CCC(CC)[C@H]1C(=O)N(C)[C@H](C(=O)N(C)C)CC(=O)N(C)[C@@H](COC)C(=O)N[C@@H]([C@@H](C)CC)C(=O)N(C2CC2)CC(=O)N(C)[C@H]2C/C=C\CCN(C2=O)[C@@H](Cc2ccc(C(F)F)cc2)C(=O)N(C)CC(=O)N[C@@H](CCc2cc(F)c(C(F)(F)F)c(F)c2)C(=O)N2C[C@H](OC3CCCC3)C[C@H]2C(=O)NC2(CC(C)(C)C2)C(=O)N1C [PP2633]
NRAS/KRAS (ratio of KD value with respect to GDP-bound NRAS wild-type protein to KD value with respect to KRAS) [2]: AA (a compound having 20 or more is denoted as AA)
HRAS/KRAS (ratio of KD value with respect to GDP-bound HRAS wild-type protein to KD value with respect to KRAS) [3]: A (a compound having 10 or more and less than 20 is denoted as A)

Compound: CCO[C@@H]1C[C@H]2C(=O)NC3(CC(C)(C)C3)C(=O)N(C)[C@@H](C(CC)CC)C(=O)N(C)[C@H](C(=O)N3CCCCC3)CC(=O)N(C)[C@@H](COC)C(=O)N[C@@H]([C@@H](C)CC)C(=O)N(C)CC(=O)N(C)[C@H]3C/C=C\CCN(C3=O)[C@@H](Cc3ccc(C(F)(F)F)cc3)C(=O)N(C)CC(=O)N[C@@H](CCc3ccc(Cl)c(Cl)c3)C(=O)N2C1 [PP2610]
IC50 [1]: 126 nM
NRAS/KRAS (ratio of KD value with respect to GDP-bound NRAS wild-type protein to KD value with respect to KRAS) [2]: AA (a compound having 20 or more is denoted as AA)
HRAS/KRAS (ratio of KD value with respect to GDP-bound HRAS wild-type protein to KD value with respect to KRAS) [3]: A (a compound having 10 or more and less than 20 is denoted as A)
Kd [4, 6]: 1.3 nM

IC50 [1, 7]: 2.6 nM
Kd [4, 8]: 0.048 nM
Compound: CC[C@H](C)[C@@H]1NC(=O)[C@@H]2CCCCCc3ccc(cc3)C[C@@H](C(=O)N(C)CC(=O)N[C@@H](CCc3ccc(C(F)(F)F)c(OC)c3)C(=O)N3C[C@H](OC(C)C)C[C@H]3C(=O)NC3(CC(C)(C)C3)C(=O)N(C)[C@@H](C3CCCC3)C(=O)N(C)[C@H](C(=O)N(C)C)CC(=O)N2C)N2CC/C=C\C[C@@H](C2=O)N(C)C(=O)CN(C)C1=O [PP3072]
NRAS/KRAS (ratio of KD value for NRAS to KD value for KRAS) ([2]; SPR): A (a compound having 10 or more and less than 20 is denoted as A)
ratio of the KD value with respect to GDP-bound NRAS wild-type protein to the KD value with respect to KRAS ([2]; SPR, KD(NRAS)/KD(KRAS)): A (a compound having 10 or more and less than 20 is denoted as A)
HRAS/KRAS (ratio of KD value for HRAS to KD value for KRAS) [3]: B (a compound having 3 or more and less than 10 is denoted as B)
ratio of the KD value with respect to GDP-bound HRAS wild-type protein to the KD value with respect to KRAS [3]: B (a compound having 3 or more and less than 10 is denoted as B)

IC50 [1]: 48.2 nM
Kd [4, 5]: 0.25 nM
Compound: CC[C@H](C)[C@@H]1NC(=O)[C@H](CC)N(C)C(=O)C[C@@H](C(=O)N(C)C)N(C)C(=O)[C@H](C2CCCC2)N(C)C(=O)C2(CCC2)NC(=O)[C@@H]2C[C@H](C)CN2C(=O)[C@H](CCc2cc(F)c(C(F)(F)F)c(F)c2)NC(=O)CN(C)C(=O)[C@H](CC2CCCCC2)N2CC/C=C\C[C@@H](C2=O)N(C)C(=O)CN(C)C1=O [PP1471]
NRAS/KRAS (ratio of KD value for NRAS to KD value for KRAS) ([2]; SPR, KD ratio class): A (a compound having 10 or more and less than 20 is denoted as A)
HRAS/KRAS (ratio of KD value for HRAS to KD value for KRAS) ([3]; KD ratio class): A (a compound having 10 or more and less than 20 is denoted as A)

IC50 [1]: 15.2 nM
Kd [4, 5]: 0.096 nM
Compound: C=CC[C@H]1C(=O)N[C@@H]([C@@H](C)CC)C(=O)N(C)CC(=O)N(C)[C@H]2C/C=C\CCN(C2=O)[C@@H](CC2CCC(F)(F)CC2)C(=O)N(C)CC(=O)N[C@@H](CCc2cc(F)c(C(F)(F)F)c(F)c2)C(=O)N2C[C@H](OCC)C[C@H]2C(=O)NC2(CCC2)C(=O)N(C)[C@@H](C2CCCC2)C(=O)N(C)[C@H](C(=O)N(C)C)CC(=O)N1C [PP1454, (2S,8S,12R,14S,20S,23S,27S,30S,36S,38Z)-27-allyl-20-cyclopentyl-2-[(4,4-difluorocyclohexyl)methyl]-8-[2-[3,5-difluoro-4-(trifluoromethyl)phenyl]ethyl]-12-ethoxy-N,N,4,19,22,26,32,35-octamethyl-30-[(1S)-1-methylpropyl]-3,6,9,15,18,21,25,28,31,34,42-undecaoxo-spiro[1,4,7,10,16,19,22,26,29,32,35-undecazatricyclo[34.5.1.0^10,14]dotetracont-38-ene-17,1′-cyclobutane]-23-carboxamide]
NRAS/KRAS (ratio of KD value for NRAS to KD value for KRAS) ([2]; SPR, KD ratio class): A (a compound having 10 or more and less than 20 is denoted as A)
HRAS/KRAS (ratio of KD value for HRAS to KD value for KRAS) ([3]; KD ratio class): A (a compound having 10 or more and less than 20 is denoted as A)

IC50 [1]: 179 nM
Kd [4, 6]: 4.2 nM
Compound: CCC[C@H]1C(=O)N[C@@H](CC(C)C)C(=O)N(C2CC2)CC(=O)N(C)[C@H]2C/C=C\CCN(C2=O)[C@@H](Cc2ccc(C)cc2)C(=O)N(C)CC(=O)N[C@@H](CCc2ccc(C(F)(F)F)c(Cl)c2)C(=O)N2C[C@H](OCC)C[C@H]2C(=O)NC2(CCC2)C(=O)N(C)[C@@H](C2CCCC2)C(=O)N(C)[C@H](C(=O)N(C)C)CC(=O)N1C [PP2543]
HRAS/KRAS (ratio of KD value with respect to GDP-bound HRAS wild-type protein to KD value with respect to KRAS) [3]: B (a compound having 3 or more and less than 10 is denoted as B)

Compound: CCC[C@H]1C(=O)N[C@@H]([C@@H](C)CC)C(=O)N(C)CC(=O)N(C)[C@H]2C/C=C\CCN(C2=O)[C@@H](Cc2ccc(C(F)(F)F)cc2)C(=O)N(C)CC(=O)N[C@@H](CCc2ccc(C(F)(F)F)c(OC)c2)C(=O)N2C[C@H](OCC)C[C@H]2C(=O)N(C)C2(CCC2)C(=O)N(C)[C@@H](C2CCCC2)C(=O)N(C)[C@H](C(=O)N2CCCCC2)CC(=O)N1C [PP3103, (2S,8S,12R,14S,20S,23S,27S,30S,36S,38Z)-20-cyclopentyl-12-ethoxy-8-[2-[3-methoxy-4-(trifluoromethyl)phenyl]ethyl]-4,16,19,22,26,32,35-heptamethyl-30-[(1S)-1-methylpropyl]-23-(piperidine-1-carbonyl)-27-propyl-2-[[4-(trifluoromethyl)phenyl]methyl]spiro[1,4,7,10,16,19,22,26,29,32,35-undecazatricyclo[34.5.1.0^10,14]dotetracont-38-ene-17,1′-cyclobutane]-3,6,9,15,18,21,25,28,31,34,42-undecone]
IC50 [1, 7]: 21.5 nM
HRAS/KRAS (ratio of KD value for HRAS to KD value for KRAS) [3]: A (a compound having 10 or more and less than 20 is denoted as A)
ratio of the KD value with respect to GDP-bound HRAS wild-type protein to the KD value with respect to KRAS [3]: A (a compound having 10 or more and less than 20 is denoted as A)
Kd [4, 9]: 0.21 nM
Kd [4, 8]: 0.21 nM

Compound: CC[C@H](C)[C@@H]1NC(=O)[C@H](COC)N(C)C(=O)C[C@@H](C(=O)N2CCCCC2)N(C)C(=O)[C@H](C2CCCC2)N(C)C(=O)C2(CC(C)(C)C2)NC(=O)[C@@H]2C[C@@H](OC(C)C)CN2C(=O)[C@H](CCc2cc(F)c(C(F)(F)F)c(F)c2)NC(=O)CN(C)C(=O)[C@H](Cc2ccc(C(F)(F)F)cc2)N2CC/C=C\C[C@@H](C2=O)N(C)C(=O)CN(C)C1=O [PP2663]
IC50 [1]: 11.2 nM
HRAS/KRAS (ratio of KD value with respect to GDP-bound HRAS wild-type protein to KD value with respect to KRAS) [3]: A (a compound having 10 or more and less than 20 is denoted as A)
Kd [4, 6]: 0.24 nM

IC50 [1]: 562 nM
Kd [4, 8]: 9.3 nM
Compound: CCC(CC)[C@H]1C(=O)N(C)[C@H](C(=O)N(C)C)CC(=O)N(C)[C@@H](COC)C(=O)N[C@@H]([C@@H](C)CC)C(=O)N(C2CC2)CC(=O)N(C)[C@H]2C/C=C\CCN(C2=O)[C@@H](CC2CCCCC2)C(=O)N(C)CC(=O)N[C@@H](CCc2ccc(Cl)c(Cl)c2)C(=O)N2C[C@H](OC(C)C)C[C@H]2C(=O)NC2(CC(C)(C)C2)C(=O)N1C [PP2517]
HRAS/KRAS (ratio of KD value for HRAS to KD value for KRAS) [3]: A (a compound having 10 or more and less than 20 is denoted as A)

IC50 [1, 7]: 3420 nM
Kd [4, 9]: 3000 nM
Kd [4, 8]: 3000 nM
Compound: CC[C@H](C)[C@@H]1NC(=O)[C@H](CC(C)C)N(C)C(=O)CSC[C@H](C(=O)N(C)C)N(C)C(=O)[C@H](C2CCCC2)N(C)C(=O)C2(CCCC2)NC(=O)[C@@H]2CCCN2C(=O)[C@H](CCc2cc(F)c(C(F)(F)F)c(F)c2)NC(=O)CN(C)C(=O)[C@H](Cc2ccc(C(F)(F)F)cc2)N2CC/C=C\C[C@@H](C2=O)N(C)C(=O)CN(C)C1=O [PP3109]
